# Peptide text beside a SMILES is read from it. * marks the point of attachment. NOTA = O=C(O)CN1CCN(CC(=O)O)CCN(CC(=O)*)CC1; AEEEA = NCCOCCOCCOCC(=O)O
# Key:
# [1] = In vitro stability in saline (radio-HPLC); type: physicochemical; settings: room temperature, over 4 h (0.5, 1, 2, 4 h), 3.74 MBq
# Protocol: (§1) The in vitro stability of [^68Ga]Ga-HN11-1 and [^68Ga]Ga-HN11-2 (3.74 MBq) in saline and serum was tested by radio-HPLC analysis of its radiochemical purity after incubation at room temperature for 0.5 , 1 , 2 and 4 h.
# [2] = Partition coefficient (log P), 1-octanol/PBS; type: physicochemical; settings: shake-flask 3 mL 1-octanol / 3 mL PBS pH 7.4, vortex 10 min, centrifugation 10,000 rpm 10 min, γ-counter, mean ± SD, n = 5
# Protocol: The partition coefficients were assessed using the method described previously. [^68Ga]Ga-HN11-1 and [^68Ga]Ga-HN11-2 was respectively introduced into a mixture comprising 3 mL of 1-octanol and 3 mL of phosphate-buffered saline (PBS) with a pH of 7.4. Following vortexing for 10 minutes and subsequent centrifugation at 10,000 rpm for 10 minutes, samples were taken from both layers and counted using a γ-counter. The log P was determined using the formula: log P = log([M]oct/[M]aq). All measurements were conducted using 5 independent samples and are presented as mean ± standard deviation (SD).
# [3] = In vitro stability in serum (radio-HPLC); type: in vitro ADME; settings: room temperature, over 4 h (0.5, 1, 2, 4 h), 3.74 MBq, read-out: in vitro stability in serum (radiochemical purity)
# Protocol: as §1
# PD-L2 = molecular target: T1, PD-L2 (Homo sapiens, UniProt Q9BQ51); experiment: [^68Ga]Ga-HN11-1 PET/CT imaging in cancer patients; type: in vivo
# T1 construct: from tissue; host or cells: tumour lesions (NSCLC, recurrent or metastatic HNSCC) in living patients
# T1 sequence (Q9BQ51 20-273): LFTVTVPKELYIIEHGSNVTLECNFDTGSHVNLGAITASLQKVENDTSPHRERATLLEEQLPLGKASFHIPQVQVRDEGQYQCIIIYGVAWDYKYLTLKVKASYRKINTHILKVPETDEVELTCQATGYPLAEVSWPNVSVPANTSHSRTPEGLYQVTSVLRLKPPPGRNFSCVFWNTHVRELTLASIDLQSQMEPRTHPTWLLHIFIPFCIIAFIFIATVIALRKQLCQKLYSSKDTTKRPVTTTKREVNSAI
# Protocol: The program content was explained to all healthy volunteers and cancer patients, and written informed consent was obtained. Whole-body dynamic imaging was conducted for 60 min using a PET/CT 690 Elite scanner (GE Discovery) immediately after intravenous injection of [^68Ga]Ga-HN11-1 (3.1 to 4.9 MBq/kg). A static body scan was performed 15 to 45 min after injection. All cancer patients underwent [^18F]F-FDG and [^68Ga]Ga-HN11-1 PET/CT imaging within 5 d. Two nuclear medicine physicians reconstructed and reviewed the images on GE aw 4.6 workstations and reached a consensus. They delineated the ROIs and measured the values of maximum standard uptake and average standard uptake (SUVmax and SUVmean). The biological distribution of [^68Ga]Ga-HN11-1 in healthy volunteers was determined by SUVmax and SUVmean. The OLINDA/EXM software (version 1.0, Hermes Medical Solutions AB) was used to estimate the human radiation dose based on the SUVmean of each organ.
# [4] = test system: A549-PD-L2 xenograft models; experiment: Static PET/CT imaging with blocking; type: in vivo, BALB/C nude mice; settings: 60 min, pretreatment i.v. with excess HN11-1 / HN11-2 (10 mg/kg), n = 3
# Protocol: The static PET/CT imaging in A549 and A549-PD-L2 xenograft models after injection of 5.55 to 7.4 MBq (150 to 200 μCi) of [^68Ga]Ga-HN11-1 or [^68Ga]Ga-HN11-2 were acquired at 60 min. In the [^68Ga]Ga-HN11-1 + block or [^68Ga]Ga-HN11-2 + block groups, the xenograft models underwent pretreatment via intravenous injection of HN11-1 or HN-2 (10 mg/kg) before PET/CT imaging. Then, ROIs were delineated for each group. After imaging, tumor tissues from both the A549 and A459-PD-L2 xenograft tumors were extracted, and the PD-L2 expression was tested by IHC. For the pharmacokinetics study, healthy BALB/C mouse received an intravenous injection of 5.55 MBq (150 μCi) of [^68Ga]Ga-HN11-1 and [^68Ga]Ga-HN11-2. Measure the activity of blood samples (%ID/g, mean ± SD) at the corresponding time points, and the time-activity curve was plotted. Subsequently, pharmacokinetic parameters were tested using the noncompartmental model in Phoenix WinNonlin 8.1 software (Certara, USA).
# A549-PD-L2 cell lines = experiment: Cell uptake assay; type: cell-based; settings: A549-PD-L2 cells, n = 5; for cell uptake rate: mean ± SD
# Protocol: Cell uptake assays were conducted to measure the uptake of [^68Ga]Ga-HN11-1 and [^68Ga]Ga-HN11-2 in A549 and A459-PD-L2 cell lines following incubation periods of 15, 30, 60, and 90 min. Blocking studies were performed by coincubating cells with an excess of precursor (HN11-1 / HN11-2), and then the cell uptakes of [^68Ga]Ga-HN11-1 and [^68Ga]Ga-HN11-2 were performed in A459-PD-L2 cell lines after 60 min of incubation. The experiment details are provided in the SI.
# All tumor cells (1 × 10^6 per well) were seeded in two 24 - well plates, incubated for 24 h and then added with […] of [^68Ga]Ga-HN11-1 or [^68Ga]Ga-HN11-2 per well. After 15, 30, 60 and 90 min of uptake, the cells were separated from the medium, washed with 500 μL of cold PBS for three times and dissolved with 1 M NaOH. At different time points, these cells were collected and counted by using a γ-counter (WIZARD 2480, Pekin Elmer). For in vitro blocking experiments, cells were co-incubated with 10 μg of cold HN11-1 or HN11-2 precursor. After incubation, the cells were washed, collected and measured with a γ-counter, either. The IC50 values of [^68Ga]Ga-HN11-1 or [^68Ga]Ga-HN11-2 were determined using GraphPad Prism 8.0.2 software, respectively.
structure (smiles),measurement,setting,value
"CC[C@H](C)[C@H](NC(=O)[C@H](CCCNC(=N)N)NC(=O)CNC(=O)[C@H](CCC(=O)O)NC(=O)[C@H](CC(N)=O)NC(=O)[C@H](Cc1ccc(O)cc1)NC(=O)[C@H](CCCNC(=N)N)NC(=O)[C@H](Cc1ccc(O)cc1)NC(=O)[C@H](Cc1c[nH]cn1)NC(=O)COCCOCCOCCNC(=O)CN1CCN(CC(=O)O)CCN(CC(=O)O)CC1)C(=O)N[C@@H](CCCNC(=N)N)C(=O)N[C@@H](CC(N)=O)C(=O)O [[^68Ga]Ga-HN11-1, metal not drawn] ({NOTA-AEEEA}-HYRYNEGRIRN-OH)",in vitro stability in saline (radiochemical purity),[1],> 95%
same,logD,[2],-0.3 ± 0.0017
same,remaining at 4 h,[3],> 95%
same,median SUVmax,"PD-L2; all patients, n = 6",3.25
same,HN11-1 SUVmax,"PD-L2; patient 1, NSCLC, lung, PD-L2 expression 80 %",4.1
same,HN11-1 SUVmax,"PD-L2; patient 2, NSCLC, lung, PD-L2 expression 15 %",2.1
same,HN11-1 SUVmax,"PD-L2; patient 3, rHNSCC, buccal",4.0
same,HN11-1 SUVmax,"PD-L2; patient 4, rHNSCC, buccal",3.0
same,tumor uptake after blocking,[4],0.74 ± 0.03 %ID/g
same,cell uptake rate,"A549-PD-L2 cell lines; 30 min incubation, γ-counter",4.51 ± 0.04%
same,"cell uptake, block group","A549-PD-L2 cell lines; 60 min, with excess (10 μg) of cold HN11-1 / HN11-2 precursor",1.43 ± 0.13%
same,cell uptake rate,A549-PD-L2 cell lines; 60 min incubation,4.87 ± 0.28%

# Source: paper PMC11528066, “Noninvasive Monitoring of Programmed Death-Ligand 2 Expression with Positron Emission Tomography using ^68Ga-labeled Peptide Antagonist in Preclinical and Exploratory Human Studies” (Research, 2024)
